From PMC8769378, “Underlining the Importance of Peripheral Protic Functional Groups to Enhance the Proton Exchange of Gd-Based MRI Contrast Agents” (Inorganic Chemistry, 2021)

How the values were obtained:
[1] = Protonation constants of the Gd^III complexes by pH potentiometry; format: physicochemical; conditions: 0.15 M NaCl, 298 K
Text: The metal complexes of biomedical interest must show a high in vivo stability, which includes high thermodynamic stability and kinetic inertness to allow targeting applications and to avoid possible toxic effects derived by metal ion and ligand release via transmetalation or transchelation reactions.[2],[3],[13] The protonation constants of L2 as well as the stability and the protonation constants of GdL2 and those of the most important endogenous divalent metal complexes (Ca^II-, Zn^II-, and Cu^II) were determined by pH potentiometry (Table 1 and Table S1). In the case of GdL1, we were interested in determining the dissociation constant of the hydroxyl group that was measured also by pH potentiometry (Table 1). […]
The stability and protonation constants of Ca^2+, Zn^2+, and Cu^2+ complexes formed with the […] ligand were determined by pH potentiometric titration. […] The protonation constants of the GdL1 and GdL2 complexes were determined using pH potentiometry by titrating the preprepared complexes from pH = 3.0 to pH = 12 for GdL2 and from pH = 4.0 to pH = 12 for GdL1 with 0.2 M NaOH. The stability constants of GdL2 were determined by the “out-of-cell” technique because of the slow formation reaction. The pH range of the complexation equilibria and the time needed to reach the equilibria were determined by relaxometry for the formation of GdL2. […]

[2] = Stability and protonation constants of Cu^II complexes by spectrophotometry; format: physicochemical
Method: The stability constants of CuL2 were determined by spectrophotometry studying the Cu^2+–L2 systems at the absorption band of Cu^2+ complexes at [H^+] = […] in the wavelength range 210–350 nm. The concentrations of Cu^2+ and L2 were 0.72 mM. The H^+ concentration in the samples was adjusted with the addition of calculated amounts of 3 M HCl. (I = [Na^+] + [H^+] = 0.15, [H^+] ≤ 0.15 M). The samples were kept at 25 °C for 1 week. The absorbance values of the samples were determined at 11 wavelengths (260, 269, 278, 287, 296, 305, 314, 323, 332, 341, and 350 nm). For the calculations of the stability and protonation constants of the […], the molar absorptivities of CuCl2, CuL2, Cu(HL2), Cu(H2L2), and Cu(H3L2) were determined by recording the spectra of 1.0 × 10^–3, 3.0 × 10^–4, 6.0 × 10^–4, and 9.0 × 10^–4 M solutions of CuCl2 and CuL2 in the pH range 1.7–7.5. The pH was adjusted by stepwise addition of concentrated NaOH or HCl solutions. The spectrophotometric measurements were made with the use of a PerkinElmer Lambda 365 UV–vis spectrophotometer at 25 °C, using 1.0 cm cells. The protonation and stability constants were calculated with the PSEQUAD program.[35]
The stability and protonation constants of CaII-, ZnII-, CuII- and GdIII-complexes of L2, expressed by Eqs. (S2) and (S3), were determined by pH-potentiometry and spectrophotometry at 25 °C in 0.15 M […]
where i=0, 1, 2, 3. The KML and KMHiL values of CaII-, ZnII- and CuII-L2 complexes were calculated from the pH-potentiometric titration data obtained at 1:1 metal to ligand concentration ratios. In the calculations, the best fitting of the mL NaOH – pH data was obtained by assuming the formation of […]
ML, MHL, MH2L and MH3L species. […]
– pH data of the “out-of-cell” samples, which had equilibrium pH values in the range of 2.0 – 4.0.
For the complete characterization of the Gd3+-L2 system, the GdL2 complex (which is formed completely at about pH=3.5) was titrated with 0.2 M NaOH solution in the pH range 3.5 – 12.0.
(also on this page, place not known: MH 2L H3L w as derivative s “out -of-cage” *Ln(H 2DOTA)), groups , Ln III-ion donor s . Ln III system. 11,12 th out -of-cage * KGd(H2L) Gd 3+ - ligand 2. 0 Gd 3+-L2 GdL 2 is pH= 3.5) M pH ]L][M[ ]ML[K ML = ]H][LMH[ ]LMH[K 1i i LMHi + − = ]LH][Ln[ )]LH(Ln[K 2 3 2 )LH(Ln 2 + * =) […]
the deprotonation of the Gd(HL) and GdL species, respectively. […]
By taking into account the protonation constants of the ligand L2, the stability constant of the *Gd(H2L2) intermediate and the stability and protonation constant of the GdL2 complex, the species distribution of the Gd3+ - L2 system was calculated (Figure S1). […]
Then, the stability and protonation constants of CuL2 were determined by spectrophotometry. […]

In the case of `O=C(O)CN1CCN(CC(=O)O)CCN(C[C@@H](O)C(=O)O)CCN(CC(=O)O)CC1` [L2, (R)2,2′,2″-(10-(2-Carboxy-2-hydroxyethyl)-1,4,7,10-tetraazacyclododecane-1,4,7-triyl) Triacetic Acid], the “Gd(L)H–1 (log KGd(L)H-1, protonation constant of the alkoxide)” value [1] is reported as 9.58 (3), the “Gd(HL) (log K, protonation constant of the Gd complex)” value ([1]; carboxylate of the 2-hydroxypropanoic arm) is reported as 3.36 (3) and the “CuH2L (log K)” value ([2]; 0.15 M NaCl, 25 °C) is reported as 3.36 (2). The “CuH3L (log K)” value ([2]; 0.15 M NaCl, 25 °C) was 1.36 (8), the “CuHL (log K, protonation constant of the complex)” value ([2]; 0.15 M NaCl, 25 °C) was 3.84 (2) and the “CuL (log K, stability constant)” value ([2]; spectrophotometry, I = [Na^+]+[H^+] = 0.15 M, [H^+] ≤ 0.15 M, 298 K) was 21.87 (6).
